From ChEMBL document CHEMBL1671801, “Melampomagnolide B: a new antileukemic sesquiterpene” (Bioorg Med Chem, 2011)
The source made the active and inactive calls.

What was measured:
AML [1] = test: Binding affinity to NF-kappaB p65 activity in human AML cells after 4 hrs streptavidin beads pull-down assay; format: cell-based
[2] = molecular target: T1, Inhibitor of nuclear factor kappa-B kinase subunit beta (Homo sapiens) (UniProt O14920); test: Binding affinity to IKK-beta activity in human AML cells after 4 hrs streptavidin beads pull-down assay; format: cell-based
T1 sequence (whole entry): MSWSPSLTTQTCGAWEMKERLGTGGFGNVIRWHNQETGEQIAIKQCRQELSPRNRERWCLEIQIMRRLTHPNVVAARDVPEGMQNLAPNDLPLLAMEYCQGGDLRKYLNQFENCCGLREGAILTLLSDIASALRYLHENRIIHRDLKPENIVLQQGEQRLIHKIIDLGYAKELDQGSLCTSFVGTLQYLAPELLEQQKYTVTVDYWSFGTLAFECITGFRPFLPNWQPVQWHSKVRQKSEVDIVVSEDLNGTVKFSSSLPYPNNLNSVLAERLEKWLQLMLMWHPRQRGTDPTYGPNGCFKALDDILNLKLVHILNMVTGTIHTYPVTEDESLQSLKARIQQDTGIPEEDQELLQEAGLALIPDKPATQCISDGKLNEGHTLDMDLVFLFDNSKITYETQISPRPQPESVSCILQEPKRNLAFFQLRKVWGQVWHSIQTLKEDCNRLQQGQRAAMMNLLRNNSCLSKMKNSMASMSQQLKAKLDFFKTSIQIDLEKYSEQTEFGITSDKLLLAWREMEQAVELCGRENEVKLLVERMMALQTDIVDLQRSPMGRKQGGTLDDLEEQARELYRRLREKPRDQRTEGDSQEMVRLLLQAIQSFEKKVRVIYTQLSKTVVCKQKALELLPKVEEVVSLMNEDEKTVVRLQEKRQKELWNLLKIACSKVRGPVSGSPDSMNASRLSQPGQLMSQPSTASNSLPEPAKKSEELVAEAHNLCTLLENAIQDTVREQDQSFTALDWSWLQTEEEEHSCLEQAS

AML [3] = test: Inhibition of NF-kappaB activity in human AML cells assessed as phosphorylation of NF-kappaB p65 subunit at Ser-536 at 15 uM by immunoblotting; format: cell-based
AML [4] = test: Cytotoxicity against human AML cells at 20 to 30 uM after 24 hrs using Annexin-V and 7-AAD staining by flow cytometry; format: functional, cell-based
AML [5] = test: Cytotoxicity against human AML cells at 7.5 uM after 24 hrs using Annexin-V and 7-AAD staining by flow cytometry; format: functional, cell-based
AML [6] = test: Inhibition of NF-kappaB activity in human AML cells assessed as phosphorylation of NF-kappaB p65 subunit at Ser-536 at 7.5 uM by immunoblotting; format: cell-based

Measured: Activity

C=C1C(=O)O[C@@H]2[C@H]3O[C@]3(C)CC/C=C(\COC(=O)CCCCCCCCCCCNC(=O)CCCC[C@@H]3SC[C@@H]4NC(=O)N[C@@H]43)CC[C@@H]12
active: AML [1] | [2] | AML [3] | AML [4]

C=C1C(=O)O[C@@H]2[C@H]3O[C@]3(C)CC/C=C(\CO)CC[C@@H]12
active: AML [5] | AML [6]
